PMC8233319, “Protein mimetic amyloid inhibitor potently abrogates cancer-associated mutant p53 aggregation and restores tumor suppressor function” (Nature Communications, 2021)

Tests used:
[1] = molecular target: T1, p53 (mutant R248W DBD-derived peptide pR248W) (Homo sapiens, UniProt P04637, R248W); experiment: intrinsic tryptophan fluorescence quenching titration (weak; no CETSA stabilization of R248W); format: binding
T1 construct: gene TP53

[2] = molecular target: T2, p53 (mutant R175H) (Homo sapiens, UniProt P04637, R175H); experiment: CETSA in SK-BR-3 cells (Tm […] to […] °C at […]); format: cell-based
T2 construct: gene TP53; endogenous mutant p53 in SK-BR-3 cells

[3] = molecular target: T1, p53 (mutant R248W DBD-derived peptide pR248W); experiment: intrinsic tryptophan fluorescence quenching titration (also HSQC NMR on R248W DBD and CETSA in MIA PaCa-2 cells); format: binding
[4] = molecular target: the molecule itself; experiment: thioflavin T (ThT) amyloid aggregation kinetics; 25 uM peptide alone in PBS with 50 uM ThT, shaking, 37 °C, fluorescence every 5 min; self-assembly into amyloid

Question: Which Kd [1] does the source give for `COC(=O)c1ccc(NC(=O)c2ccc(NC(=O)c3ccc([N+](=O)[O-])c(OCC(=O)O)n3)c(OCc3ccccc3)n2)c(OCC(=O)O)n1` [ADH-1] here?
Answer: 15.4 ± 0.8 µM

Question: For `CCCCOc1nc(C(=O)Nc2ccc(C(=O)Nc3ccc(C(=O)OC)nc3OCCCN)nc2OCCCN)ccc1[N+](=O)[O-]` [ADH-6], which “CETSA in SK-BR-3 cells (Tm 38.8 to 45.1 °C at 5 μM)” value [2] is on record?
Answer: 45.1 ± 1.2 °C

Question: And the Kd [3]?
Answer: 0.366 ± 0.013 µM

B1: pWT, WT p53 DBD-derived peptide (residues 248-273) (peptide, UniProt P04637 248-273, looked up)
peptide: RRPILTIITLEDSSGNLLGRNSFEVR
notes: source: synthetic peptide (Selleck Chemicals, Fmoc; purified in house by reverse-phase HPLC)
Question: Does B1 bind [4]?
Answer: binds
